The values below come from patent US11220496B2, “Compounds and method for treating autoimmune diseases” (Rigel Pharmaceuticals, Inc., priority 2013, dated 2022).

Structures can show the parent of a compound that is named as a salt.

This experiment can be described thus: Human primary T-cell proliferation stimulated by IL-2 (CellTiter-Glo). Type of experiment: cell-based. The settings on record: primary human T-cells, IL-2 stimulated proliferation, 72 hours, ATP readout; read-out: Activity (IC50, inhibition of JAK3 activity). The source says:
One means of assaying for such inhibition is detection of the effect of the 2,4-substituted pyrimidinediamine compounds on the upregulation of downstream gene products. For example, the activity of the disclosed compounds may be characterized by assaying the effect of the 2,4-substituted pyrimidinediamine compounds described herein on the proliferative response of primary human T-cells. In this assay, primary human T-cells derived from peripheral blood and pre-activated through stimulation of the T-cell receptor and CD28, proliferate in culture in response to the cytokine Interleukin-2 (IL-2). This proliferative response is dependent on the activation of JAK1 and JAK3 tyrosine kinases, which phosphorylate and activate the transcription factor Stat-5. The primary human T-cells are incubated with the 2,4-substituted pyrimidinediamine compounds in the presence of IL-2 for 72 hours and at the assay endpoint intracellular ATP concentrations are measured to assess cell viability. A reduction in cell proliferation compared to control conditions is indicative of inhibition of the JAK kinase pathway.
Primary human T-cells derived from peripheral blood and pre-activated through stimulation of the T-cell receptor and CD28, proliferate in vitro in response to the cytokine Interleukin-2 (IL-2). This proliferative response is dependent on the activation of JAK-1 and JAK-3 tyrosine kinases, which phosphorylate and activate the transcription factor Stat-5.
Human primary T-cells were prepared as follows. Whole blood was obtained from a healthy volunteer, mixed 1:1 with PBS, layered on to Ficoll Hypaque (Amersham Pharmacia Biotech, Piscataway, N.J., Catalog #17-1440-03) in 2:1 blood/PBS:ficoll ratio and centrifuged for 30 min at 4° C. at 1750 rpm. The lymphocytes at the serum: ficoll interface were recovered and washed twice with 5 volumes of PBS. The cells were resuspended in Yssel's medium (Gemini Bio-products, Woodland, Calif., Catalog #400-103) containing 40 U/mL recombinant IL2 (R and D Systems, Minneapolis, Minn., Catalog #202-IL (20 μg)) and seeded into a flask pre-coated with 1 μg/mL anti-CD3 (BD Pharmingen, San Diego, Calif., Catalog #555336) and 5 μg/mL anti-CD28 (Immunotech, Beckman Coulter of Brea Calif., Catalog #IM1376). The primary T-cells were stimulated for 3-4 days, then transferred to a fresh flask and maintained in RPMI with 10% FBS and 40 U/mL IL-2.
The day prior to the assay set up, primary T-cells were centrifuged and resuspended in fresh RPMI with 10% FBS but without IL-2 and starved overnight. For the assay, the primary T-cells were centrifuged and resuspended Yssel's medium at 2×10^6 cells/mL. 50 μL of cell suspension containing 80 U/mL IL-2 was added to each well of a flat bottom 96 well black plate. For the unstimulated control, IL-2 was omitted from the last column on the plate. Compounds were serially diluted in dimethyl sulfoxide (DMSO, 99.7% pure, cell culture tested, Sigma-Aldrich, St. Louis, Mo., Catalog No. D2650) from 5 mM in 3-fold dilutions, and then diluted 1:250 in Yssel's medium. 50 μL of 2× compound was added per well in duplicate and the cells were allowed to proliferate for 72 hours at 37° C.
Proliferation was measured using CellTiter-Glo® Luminescent Cell Viability Assay (Promega), which determines the number of viable cells in culture based on quantitation of the ATP present, as an indicator of metabolically active cells. The substrate was thawed and allowed to come to ambient temperature. After mixing the Cell Titer-Glo reagent and diluent together, 100 μL was added to each well. The plates were mixed on an orbital shaker for two minutes to induce lysis and incubated at ambient temperature for an additional ten minutes to allow the signal to equilibrate. Detection was performed using a Wallac Victor2 1420 multilabel counter purchased from Perkin Elmer, Shelton, Conn.
`Cc1cnc(Nc2cc(C)c(C)c(C)c2)nc1Nc1ccc2oc(=O)[nH]c2c1` [Compound A1, N2-(3,4,5-trimethyl)phenyl-5-methyl-N4-(2-oxo-2,3-dihydro-1,3-benzoxazol-5-yl)-2,4-pyrimidinediamine]: the IC50 was less than 500 nM.

For the compound `Cc1cnc(Nc2ccc(C(=O)Nc3ccccc3)cc2)nc1Nc1ccc2oc(=O)[nH]c2c1` [Compound A2, 4-[5-methyl-4-(2-oxo-2,3-dihydro-benzoxazol-5-ylamino)-pyrimidin-2-ylamino]-N-phenyl-benzamide], the concentration for half-maximal inhibition (IC50) is less than 500 nM.

In the case of `Cc1cnc(Nc2ccc(C(N)=O)cc2)nc1Nc1ccc2oc(=O)[nH]c2c1` [Compound A3, N4-(benzo[d]oxazol-2(3H)-on-5-yl)-N2-(4-aminocarbonylphenyl)-5-methylpyrimidine-2,4-diamine], the IC50 was less than 500 nM.

`Cc1cnc(Nc2ccc(C(=O)NC3CCC3)cc2)nc1Nc1ccc2oc(=O)[nH]c2c1` [Compound A5, N-cyclobutyl-4-[5-methyl-4-(2-oxo-2,3-dihydro-benzooxazol-5-ylamino)-pyrimidin-2-ylamino]-benzamide]: the IC50 is less than 500 nM.

On to `Cc1cc(CF)cc(Nc2ncc(C)c(Nc3ccc4oc(=O)[nH]c4c3)n2)c1` [Compound A7, 5-(2-(3-(fluoromethyl)-5-methylphenylamino)-5-methylpyrimidin-4-ylamino)benzo[d]oxazol-2(3H)-one], for which the IC50 is less than 500 nM.

Take `Cc1ccc(Nc2ncc(C)c(Nc3ccc4oc(=O)[nH]c4c3)n2)cc1F` [Compound A8, N2-(3-fluoro-4-methyl)phenyl-5-methyl-N4-(2-oxo-2,3-dihydro-1,3-benzoxazol-5-yl)-2,4-pyrimidinediamine]: the half-inhibitory concentration (IC50) is less than 500 nM.

In the case of `Cc1ccc(Nc2ncc(C)c(Nc3ccc4oc(=O)[nH]c4c3)n2)cc1C` [Compound A10, 5-[2-(3,4-dimethyl-phenylamino)-5-methyl-pyrimidin-4-ylamino]-3H-benzooxazol-2-one], the IC50 is less than 500 nM.

In the case of `COc1cc(Nc2ncc(C)c(Nc3ccc4oc(=O)[nH]c4c3)n2)cc(Cl)c1OC` [Compound A11, 5-(2-(3-chloro-4,5-dimethoxyphenylamino)-5-methylpyrimidin-4-ylamino)benzo[d]oxazol-2(3H)-one], the IC50 is less than 500 nM.

On to `Cc1cnc(Nc2ccc3cnoc3c2)nc1Nc1ccc2oc(=O)[nH]c2c1` [Compound A12, 5-(2-(benzo[d]isoxazol-6-ylamino)-5-methylpyrimidin-4-ylamino)benzo[d]oxazol-2(3H)-one], for which the IC50 is less than 500 nM.

With `Cc1cnc(Nc2cc(C)c(F)c(C)c2)nc1Nc1ccc2oc(=O)[nH]c2c1` [Compound A14, N2-(3,5-dimethyl-4-fluoro)phenyl-5-methyl-N4-(2-oxo-2,3-dihydro-1,3-benzoxazol-5-yl)-2,4-pyrimidinediamine], the 50% inhibitory concentration (IC50) is less than 500 nM.

Regarding `COc1cc(Nc2ncc(C)c(Nc3ccc4oc(=O)n(COP(=O)(O)O)c4c3)n2)cc(C(F)(F)F)c1` [Compound A15, N2-(3-methoxy-5-trifluoromethyl)phenyl-5-methyl-N4-[3-(phosphonooxy)methyl-2-oxo-2,3-dihydro-1,3-benzoxazol-5-yl]-2,4-pyrimidinediamine bis-sodium salt], the IC50 was in the range of 500 to 5000 nM.

Take `COc1cc(Nc2ncc(C)c(Nc3ccc4oc(=O)n(COP(=O)(O)O)c4c3)n2)cc(C)c1F` [Compound A16, Sodium (5-(2-(4-fluoro-3-methoxy-5-methylphenylamino)-5-methylpyrimidin-4-ylamino)-2-oxobenzo[d]oxazol-3(2H)-yl)methyl phosphate]: the IC50 was in the range of 500 to 5000 nM.

In the case of `Cc1cnc(Nc2cc(C)c(C)c(C)c2)nc1Nc1ccc2oc(=O)n(COP(=O)(O)O)c2c1` [Compound A17, 5-methyl-N4-[3-(phosphonooxy)methyl-2-oxo-2,3-dihydro-1,3-benzoxazol-5-yl]-N2-(3,4,5-trimethyl)phenyl-2,4-pyrimidinediamine bis-sodium salt], the IC50 was 500 to 5000 nM.

With `Cc1cnc(Nc2cc(C)c(F)c(C)c2)nc1Nc1ccc2oc(=O)n(COP(=O)(O)O)c2c1` [Compound A18, N2-(3,5-dimethyl-4-fluoro)phenyl-5-methyl-N4-[3-(phosphonooxy)methyl-2-oxo-2,3-dihydro-1,3-benzoxazol-5-yl]-2,4-pyrimidinediamine bis-sodium salt], the IC50 lay within 500 to 5000 nM.

As to `COc1cc(Nc2ncc(C)c(Nc3ccc4oc(=O)[nH]c4c3)n2)cc(C)c1F` [Compound I-432, 5-(2-(4-fluoro-3-methoxy-5-methylphenylamino)-5-methylpyrimidin-4-ylamino)benzo[d]oxazol-2(3H)-one], the IC50 is less than 500 nM.

As a reminder, the IC50 is the point on the concentration scale where inhibition reaches its midpoint.
